For this assay, the target named is T1, PDE4B2 (Homo sapiens, UniProt Q07343).
T1 construct: made in house; host or cells: SF21 insect cells (baculovirus; virus made in SF9 cells)
Nature of the assay: Inhibition of PDE4 activity (PDE4B2 [3H]cAMP SPA enzyme assay). It counts as biochemical. As to conditions: recombinant PDE4B2 expressed in SF21 insect cells, 0.5 μM cAMP, read-out: −log IC50 (mol/l), Inhibition of the PDE4 activity (converted). The method, then: The PDE4B2 (GB no. M97515) was a gift of Prof. M. Conti (Stanford University, USA). It was amplified from the original plasmid (pCMV5) via PCR with primers Rb9 (5′-[…]-3′) and Rb10 (5′-[…]-3′) and cloned into the pCR-Bac vector (Invitrogen, Groningen, NL).
The recombinant baculovirus was prepared by means of homologous recombination in SF9 insect cells. The expression plasmid was cotransfected with Bac-N-Blue (Invitrogen, Groningen, NL) or Baculo-Gold DNA (Pharmingen, Hamburg) using a standard protocol (Pharmingen, Hamburg). Wt virus-free recombinant virus supernatant was selected using plaque assay methods. After that, high-titre virus supernatant was prepared by amplifying 3 times. PDE was expressed in SF21 cells by infecting 2×10^6 cells/ml with an MOI (multiplicity of infection) between 1 and 10 in serum-free SF900 medium (Life Technologies, Paisley, UK). […]
The SF21 insect cells were resuspended, at a concentration of approx. 10^7 cells/ml, in ice-cold (4° C.) homogenization buffer (20 mM Tris, pH 8.2, containing the following additions: 140 mM NaCl, 3.8 mM KCl, 1 mM EGTA, 1 mM MgCl2, 10 mM β-mercaptoethanol, 2 mM benzamidine, 0.4 mM Pefablock, 10 μM leupeptin, 10 μM pepstatin A, 5 μM trypsin inhibitor) and disrupted by ultrasonication. […] The protein content was determined by the Bradford method (BioRad, Munich) using BSA as the standard. […]

T1 sequence (Q07343 1-564 isoform Q07343-2): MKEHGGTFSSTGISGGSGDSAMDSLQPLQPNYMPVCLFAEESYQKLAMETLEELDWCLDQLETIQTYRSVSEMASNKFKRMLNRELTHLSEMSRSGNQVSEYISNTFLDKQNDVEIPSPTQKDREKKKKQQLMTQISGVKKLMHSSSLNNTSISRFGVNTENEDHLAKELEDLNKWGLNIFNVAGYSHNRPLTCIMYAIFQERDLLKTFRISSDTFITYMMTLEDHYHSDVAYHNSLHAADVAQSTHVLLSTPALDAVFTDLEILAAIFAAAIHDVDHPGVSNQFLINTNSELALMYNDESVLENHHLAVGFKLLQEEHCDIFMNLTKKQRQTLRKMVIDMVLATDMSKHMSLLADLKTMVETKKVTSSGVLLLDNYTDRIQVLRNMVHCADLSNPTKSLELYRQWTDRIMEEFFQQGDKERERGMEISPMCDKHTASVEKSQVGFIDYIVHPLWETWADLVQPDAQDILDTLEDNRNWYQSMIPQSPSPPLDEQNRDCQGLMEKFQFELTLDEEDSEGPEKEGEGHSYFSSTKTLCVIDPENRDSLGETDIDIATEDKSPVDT

`CCOc1cc2c(cc1OC)C(c1ccc(OC)nc1OC)=N[C@@H]1CCCC[C@H]21` [Example 2, (4aR,10bR)-6-(2,6-Dimethoxy-pyridin-3-yl)-9-ethoxy-8-methoxy-1,2,3,4,4a,10b-hexahydro-phenanthridine]: the IC50 is 3.24 nM.

Source of the values: patent US20080119505A1, “Novel 6-Pyridylphenanthridines” (ALTANA Pharma AG, priority 2005, published 2008).
